# Tests used:
# Assay type in all cases: functional
# OVCAR-8 = assay: Cytotoxicity against Homo sapiens (human) OVCAR8 cells after 48 hr by sulforhodamine B assay; settings: OVCAR-8, 48 h
# SF-268 = assay: Cytotoxicity against Homo sapiens (human) SF268 cells assessed as cell growth at 10^-4 M after 48 hr by […] assay; settings: SF-268, 48 h, read-out: Activity
# COLO 205 = assay: Cytotoxicity against Homo sapiens (human) COLO205 cells after 48 hr by sulforhodamine B assay; settings: COLO 205, 48 h; for CC50: read-out: LC50 (the source's name)
# MCF7 = assay: Cytotoxicity against Homo sapiens (human) MCF7 cells after 48 hr by sulforhodamine B assay; settings: MCF7, 48 h
# U-251 = assay: Cytotoxicity against Homo sapiens (human) U251 cells after 48 hr by sulforhodamine B assay; settings: U-251, 48 h
# BT-549 = assay: Cytotoxicity against Homo sapiens (human) BT549 cells after 48 hr by sulforhodamine B assay; settings: BT-549, 48 h
# OVCAR-3 = assay: Cytotoxicity against Homo sapiens (human) OVCAR3 cells after 48 hr by sulforhodamine B assay; settings: OVCAR-3, 48 h
# A498 = assay: Cytotoxicity against Homo sapiens (human) A498 cells after 48 hr by sulforhodamine B assay; settings: A498, 48 h
# NCI-H226 = assay: Cytotoxicity against Homo sapiens (human) NCI-H226 cells after 48 hr by sulforhodamine B assay; settings: NCI-H226, 48 h; for CC50: read-out: LC50 (the source's name)
# UO-31 = assay: Cytotoxicity against Homo sapiens (human) UO31 cells after 48 hr by sulforhodamine B assay; settings: UO-31, 48 h
# HCT-15 = assay: Cytotoxicity against Homo sapiens (human) HCT15 cells after 48 hr by sulforhodamine B assay; settings: HCT-15, 48 h; for CC50: read-out: LC50 (the source's name)
# CCRF-CEM = assay: Cytotoxicity against Homo sapiens (human) CCRF-CEM cells after 48 hr by sulforhodamine B assay; settings: for CC50: read-out: LC50 (the source's name)
# KM12 = assay: Cytotoxicity against Homo sapiens (human) KM12 cells after 48 hr by sulforhodamine B assay; settings: KM12, 48 h; for CC50: read-out: LC50 (the source's name)
# OVCAR-4 = assay: Cytotoxicity against Homo sapiens (human) OVCAR4 cells after 48 hr by sulforhodamine B assay; settings: OVCAR-4, 48 h
# HT-29 = assay: Cytotoxicity against Homo sapiens (human) HT-29 cells after 48 hr by sulforhodamine B assay; settings: HT-29, 48 h; for CC50: read-out: LC50 (the source's name)
# SF-539 = assay: Cytotoxicity against Homo sapiens (human) SF539 cells after 48 hr by sulforhodamine B assay; settings: SF-539, 48 h
# HCT-116 = assay: Cytotoxicity against Homo sapiens (human) HCT116 cells after 48 hr by sulforhodamine B assay; settings: HCT-116, 48 h
# SK-MEL-28 = assay: Cytotoxicity against Homo sapiens (human) SK-MEL-28 cells after 48 hr by sulforhodamine B assay; settings: SK-MEL-28, 48 h
# RPMI-8226 = assay: Cytotoxicity against Homo sapiens (human) RPMI8226 cells after 48 hr by sulforhodamine B assay; settings: RPMI-8226, 48 h
# K562 = assay: Cytotoxicity against Homo sapiens (human) K562 cells after 48 hr by sulforhodamine B assay; settings: K562, 48 h; for CC50: read-out: LC50 (the source's name)
# SW-620 = assay: Cytotoxicity against Homo sapiens (human) SW620 cells after 48 hr by sulforhodamine B assay; settings: SW-620, 48 h; for CC50: read-out: LC50 (the source's name)
# PC-3 = assay: Cytotoxicity against Homo sapiens (human) PC3 cells after 48 hr by sulforhodamine B assay; settings: PC-3, 48 h
# NCI-H460 = assay: Cytotoxicity against Homo sapiens (human) NCI-H460 cells assessed as cell growth at 10^-4 M after 48 hr by Alamar blue assay; settings: NCI-H460, 48 h, read-out: Activity
# MDA-MB-435 = assay: Cytotoxicity against Homo sapiens (human) MDA-MB-435 cells after 48 hr by sulforhodamine B assay; settings: MDA-MB-435, 48 h
# SNB-75 = assay: Cytotoxicity against Homo sapiens (human) SNB75 cells after 48 hr by sulforhodamine B assay; settings: SNB-75, 48 h; for CC50: read-out: LC50 (the source's name)
# SN12C = assay: Cytotoxicity against Homo sapiens (human) SN12C cells after 48 hr by sulforhodamine B assay
# NCI-H522 = assay: Cytotoxicity against Homo sapiens (human) NCI-H522 cells after 48 hr by sulforhodamine B assay; settings: NCI-H522, 48 h; for CC50: read-out: LC50 (the source's name)
# [1] = read-out: LC50 (the source's name)
compound,measurement,setting,value
ClCc1cccc(Cn2cnc3c(Cl)nc(Cl)nc32)c1,GI50,OVCAR-8,1.82 µM
same,LC50 (concentration killing 50% of cells),OVCAR-8,67.6 µM
same,TGI,OVCAR-8,3.54 µM
same,growth at 100 µM,SF-268,0%
same,GI50,COLO 205,2.23 µM
same,TGI,COLO 205,5.37 µM
same,CC50,COLO 205,> 100 µM
same,GI50,MCF7,2.04 µM
same,LC50 (concentration killing 50% of cells),MCF7,> 100 µM
same,TGI,MCF7,6.45 µM
same,GI50,U-251,1.69 µM
same,LC50 (concentration killing 50% of cells),U-251,5.62 µM
same,TGI,U-251,3.09 µM
same,GI50,BT-549,1.69 µM
same,LC50 (50% lethal concentration),BT-549,6.16 µM
same,TGI,BT-549,3.23 µM
same,GI50,OVCAR-3,1.58 µM
same,LC50,OVCAR-3,6.45 µM
same,TGI,OVCAR-3,3.23 µM
same,GI50,A498,2.39 µM
same,"LC50 (lethal concentration, 50% cell kill)",A498,27.5 µM
same,TGI,A498,6.6 µM
same,GI50,NCI-H226,3.23 µM
same,TGI,NCI-H226,10 µM
same,CC50,NCI-H226,40.7 µM
same,GI50,UO-31,1.58 µM
same,LC50 (concentration causing 50% net cell kill),UO-31,5.88 µM
same,TGI,UO-31,3.09 µM
same,GI50,HCT-15,2.39 µM
same,TGI,HCT-15,6.91 µM
same,CC50,HCT-15,> 100 µM
same,GI50,CCRF-CEM,2.69 µM
same,TGI,CCRF-CEM,> 100 µM
same,CC50,CCRF-CEM,> 100 µM
same,GI50,KM12,1.82 µM
same,TGI,KM12,3.8 µM
same,CC50,KM12,7.94 µM
same,GI50,OVCAR-4,5.49 µM
same,LC50 (concentration killing 50% of cells),OVCAR-4,61.7 µM
same,TGI,OVCAR-4,19.9 µM
same,GI50,HT-29,2.39 µM
same,TGI,HT-29,> 100 µM
same,CC50,HT-29,> 100 µM
same,GI50,SF-539,2.18 µM
same,LC50 (concentration killing 50% of cells),SF-539,40.7 µM
same,TGI,SF-539,14.1 µM
same,GI50,HCT-116,1.62 µM
same,TGI,HCT-116,3.09 µM
same,CC50,HCT-116; [1],5.88 µM
same,GI50,SK-MEL-28,2.34 µM
same,LC50 (concentration killing 50% of cells),SK-MEL-28,> 100 µM
same,TGI,SK-MEL-28,5.37 µM
same,GI50,RPMI-8226,3.31 µM
same,TGI,RPMI-8226,> 100 µM
same,CC50,RPMI-8226; [1],> 100 µM
same,GI50,K562,1.58 µM
same,TGI,K562,> 100 µM
same,CC50,K562,> 100 µM
same,GI50,SW-620,1.58 µM
same,TGI,SW-620,3.46 µM
same,CC50,SW-620,7.76 µM
same,GI50,PC-3,2.39 µM
same,LC50 (concentration causing 50% cell kill),PC-3,55 µM
same,TGI,PC-3,5.01 µM
same,growth at 100 µM,NCI-H460,0%
same,GI50,MDA-MB-435,1.69 µM
same,LC50,MDA-MB-435,6.31 µM
same,TGI,MDA-MB-435,3.23 µM
same,GI50,SNB-75,2.04 µM
same,TGI,SNB-75,3.89 µM
same,CC50,SNB-75,7.41 µM
same,GI50,SN12C,2.13 µM
same,LC50 (50% lethal concentration),SN12C,11.8 µM
same,TGI,SN12C,4.67 µM
same,GI50,NCI-H522,2.69 µM
same,TGI,NCI-H522,5.37 µM
same,CC50,NCI-H522,17 µM
ClCc1ccccc1Cn1cnc2nc(Cl)nc(Cl)c21,GI50,OVCAR-8,2.75 µM
same,LC50 (concentration killing 50% of cells),OVCAR-8,75.9 µM
same,TGI,OVCAR-8,7.07 µM
same,growth at 100 µM,SF-268,0%
same,GI50,COLO 205,0.35 µM
same,TGI,COLO 205,> 100 µM
same,CC50,COLO 205,> 100 µM
same,GI50,MCF7,1.04 µM
same,LC50 (concentration killing 50% of cells),MCF7,> 100 µM
same,TGI,MCF7,2.57 µM
same,GI50,U-251,0.33 µM
same,LC50 (concentration killing 50% of cells),U-251,3.63 µM
same,TGI,U-251,1.17 µM
same,GI50,BT-549,1.34 µM
same,LC50 (50% lethal concentration),BT-549,7.07 µM
same,TGI,BT-549,3.09 µM
same,GI50,OVCAR-3,14.1 µM
same,LC50,OVCAR-3,53.7 µM
same,TGI,OVCAR-3,27.5 µM
same,GI50,A498,2.51 µM
same,"LC50 (lethal concentration, 50% cell kill)",A498,19.5 µM
same,TGI,A498,5.88 µM
same,GI50,NCI-H226,2.13 µM
same,TGI,NCI-H226,6.76 µM
same,CC50,NCI-H226,28.2 µM
same,GI50,UO-31,1.73 µM
same,GI50,HCT-15,0.19 µM
same,TGI,HCT-15,0.43 µM
same,CC50,HCT-15,0.95 µM
same,GI50,CCRF-CEM,0.1 µM
same,TGI,CCRF-CEM,0.3 µM
same,CC50,CCRF-CEM,0.93 µM
same,GI50,KM12,11.7 µM
same,TGI,KM12,25.7 µM
same,CC50,KM12,56.2 µM
same,GI50,OVCAR-4,2.13 µM
same,LC50 (concentration killing 50% of cells),OVCAR-4,> 100 µM
same,TGI,OVCAR-4,5.12 µM
same,GI50,HT-29,0.4 µM
same,TGI,HT-29,> 100 µM
same,CC50,HT-29,> 100 µM
same,GI50,SF-539,2.13 µM
same,LC50 (concentration killing 50% of cells),SF-539,8.31 µM
same,TGI,SF-539,4.26 µM
same,GI50,HCT-116,1.86 µM
same,TGI,HCT-116,4.07 µM
same,GI50,SK-MEL-28,0.35 µM
same,LC50 (concentration killing 50% of cells),SK-MEL-28,> 100 µM
same,TGI,SK-MEL-28,> 100 µM
same,GI50,RPMI-8226,0.21 µM
same,TGI,RPMI-8226,0.63 µM
same,GI50,K562,0.25 µM
same,TGI,K562,0.69 µM
same,CC50,K562,> 100 µM
same,GI50,SW-620,0.26 µM
same,TGI,SW-620,0.67 µM
same,CC50,SW-620,4.67 µM
same,GI50,PC-3,0.75 µM
same,TGI,PC-3,2.57 µM
same,growth at 100 µM,NCI-H460,0%
same,GI50,MDA-MB-435,16.6 µM
same,LC50,MDA-MB-435,58.9 µM
same,TGI,MDA-MB-435,30.9 µM
same,GI50,SNB-75,1.9 µM
same,TGI,SNB-75,4.46 µM
same,CC50,SNB-75,> 100 µM
same,GI50,SN12C,1.17 µM
same,LC50 (50% lethal concentration),SN12C,5.62 µM
same,TGI,SN12C,2.57 µM
same,GI50,NCI-H522,2.95 µM
same,TGI,NCI-H522,7.24 µM
same,CC50,NCI-H522,> 100 µM

# Source: ChEMBL document CHEMBL3044672, “N9- and N7-(Chloromethyl Phenymethyl)Chloropurine Derivatives from , '-Dichloroxylenes: Synthesis and Anticancer Activity” (2005)
